Reference: PubChem BioAssay AID248 (DTP/NCI, 2004)
Values joined by “and” are separate entries in the source; they are usually repeats but may differ in a detail not shown here. Equal values may be shown once. Inconclusive results and toxic doses are left out.

Tested on: L1210 leukemia ip in BDF1 mice, survival T/C
Test: NCI In Vivo Anticancer Drug Screen. Data for tumor model L1210 Leukemia (intraperitoneal) in B6D2F1 (BDF1) mice
Details: endpoint: mean survival time, higher = longer survival
Summary of the method: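 Antitumor effect is assessed in tumor-bearing animals. Survival in the compound arm is compared with a vehicle-dosed control arm and expressed as their quotient.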

[1] = dose: 100.0 mg/kg/injection, schedule: Q01DX001 (ip), vehicle: carboxymethylcellulose (CMC)
[2] = dose: 200.0 mg/kg/injection, schedule: Q01DX001 (ip), vehicle: carboxymethylcellulose (CMC)
[3] = dose: 400.0 mg/kg/injection, schedule: Q01DX001 (ip), vehicle: carboxymethylcellulose (CMC)
[4] = dose: 100.0 mg/kg/injection, schedule: Q04DX003 (ip), vehicle: saline
[5] = dose: 200.0 mg/kg/injection, schedule: Q04DX003 (ip), vehicle: saline
[6] = dose: 400.0 mg/kg/injection, schedule: Q04DX003 (ip), vehicle: saline
[7] = dose: 100.0 mg/kg/injection, schedule: Q01DX009 (ip), vehicle: Klucel (hydroxypropylcellulose) (HPC)
[8] = dose: 200.0 mg/kg/injection, schedule: Q01DX009 (ip), vehicle: Klucel (hydroxypropylcellulose) (HPC)
[9] = dose: 400.0 mg/kg/injection, schedule: Q01DX009 (ip), vehicle: Klucel (hydroxypropylcellulose) (HPC)
[10] = dose: 50.0 mg/kg/injection, schedule: Q01DX009 (ip), vehicle: Klucel (hydroxypropylcellulose) (HPC)

SMILES: C=CCN(C)c1ccc(C(=O)OC)cc1
- T/C [1]: 102 % of control
- T/C [2]: 94 % of control
- T/C [3]: 100 % of control

SMILES: Cc1ccc(S(=O)(=O)N(C)CCC(C)C(=O)NN(C)c2ccccc2)cc1 (stereo not drawn)
- T/C (dose: 75.0 mg/kg/injection, schedule: Q01DX001 (ip), vehicle: saline): 95 % of control
- T/C (dose: 150.0 mg/kg/injection, schedule: Q01DX001 (ip), vehicle: saline): 89 % of control
- T/C (dose: 300.0 mg/kg/injection, schedule: Q01DX001 (ip), vehicle: saline): 90 % of control

SMILES: COc1ccc(-c2cc(-c3ccccc3)[nH]c(=O)c2N(C)C)cc1
- T/C [1]: 97 % of control
- T/C [2]: 91 % of control
- T/C [3]: 97 % of control

SMILES: Cc1ccc(C)c(-n2c(-c3ccc(Br)cc3)csc2=NC(=O)c2ccccc2F)c1
- T/C (dose: 100.0 mg/kg/injection, schedule: Q01DX009 (ip), vehicle: saline with Tween-80): 102 % of control
- T/C (dose: 100.0 mg/kg/injection, schedule: Q04DX003 (ip), vehicle: saline with Tween-80): 101 % of control
- T/C (dose: 200.0 mg/kg/injection, schedule: Q01DX009 (ip), vehicle: saline with Tween-80): 101 % of control
- T/C (dose: 200.0 mg/kg/injection, schedule: Q04DX003 (ip), vehicle: saline with Tween-80): 98 % of control
- T/C (dose: 400.0 mg/kg/injection, schedule: Q01DX009 (ip), vehicle: saline with Tween-80): 93 % of control
- T/C (dose: 400.0 mg/kg/injection, schedule: Q04DX003 (ip), vehicle: saline with Tween-80): 102 % of control

SMILES: O=C1c2cccc3cccc(c23)C(=O)N1CCCCCCCCCCN1C(=O)c2cccc3cccc(c23)C1=O
- T/C (dose: 50.0 mg/kg/injection, schedule: Q01DX009 (ip), vehicle: gum acacia): 93 % of control
- T/C (dose: 100.0 mg/kg/injection, schedule: Q01DX009 (ip), vehicle: gum acacia): 94 % of control and 89 % of control
- T/C (dose: 100.0 mg/kg/injection, schedule: Q04DX003 (ip), vehicle: gum acacia): 93 % of control
- T/C (dose: 200.0 mg/kg/injection, schedule: Q04DX003 (ip), vehicle: gum acacia): 86 % of control
- T/C (dose: 400.0 mg/kg/injection, schedule: Q01DX009 (ip), vehicle: gum acacia): 89 % of control
- T/C (dose: 400.0 mg/kg/injection, schedule: Q04DX003 (ip), vehicle: gum acacia): 90 % of control

SMILES: O=[N+]([O-])c1cc2c(cc1Br)C1C(C3C2C(Cl)(Cl)C(Cl)=C(Cl)C3(Cl)Cl)C(Cl)(Cl)C(Cl)=C(Cl)C1(Cl)Cl (stereo not drawn)
- T/C (dose: 100.0 mg/kg/injection, schedule: Q01DX001 (ip), vehicle: saline): 95 % of control
- T/C (dose: 200.0 mg/kg/injection, schedule: Q01DX001 (ip), vehicle: saline): 100 % of control
- T/C (dose: 400.0 mg/kg/injection, schedule: Q01DX001 (ip), vehicle: saline): 94 % of control

SMILES: CN1OC(C#N)(C#N)C(C#N)(C#N)C1c1ccccc1 (stereo not drawn)
- T/C (dose: 100.0 mg/kg/injection, schedule: Q01DX009 (ip), vehicle: saline): 103 % of control
- T/C [4]: 101 % of control
- T/C (dose: 200.0 mg/kg/injection, schedule: Q01DX009 (ip), vehicle: saline): 106 % of control
- T/C [5]: 89 % of control
- T/C (dose: 400.0 mg/kg/injection, schedule: Q01DX009 (ip), vehicle: saline): 101 % of control
- T/C [6]: 109 % of control

SMILES: Cc1ccc(C(=O)C=Nc2ccc(S(N)(=O)=O)cc2)cc1
- T/C (dose: 12.5 mg/kg/injection, schedule: Q04DX002 (ip), vehicle: Klucel (hydroxypropylcellulose) (HPC)): 94 % of control
- T/C (dose: 25.0 mg/kg/injection, schedule: Q04DX002 (ip), vehicle: Klucel (hydroxypropylcellulose) (HPC)): 115 % of control
- T/C (dose: 50.0 mg/kg/injection, schedule: Q04DX002 (ip), vehicle: Klucel (hydroxypropylcellulose) (HPC)): 97 % of control

SMILES: CC(=O)c1c(C)c(Cl)c(C)c(Cl)c1O
- T/C [7]: 101 % of control
- T/C (dose: 100.0 mg/kg/injection, schedule: Q04DX002 (ip), vehicle: Klucel (hydroxypropylcellulose) (HPC)): 103 % of control and 107 % of control
- T/C [8]: 104 % of control
- T/C (dose: 200.0 mg/kg/injection, schedule: Q04DX002 (ip), vehicle: Klucel (hydroxypropylcellulose) (HPC)): 103 % of control and 114 % of control
- T/C [9]: 90 % of control
- T/C (dose: 400.0 mg/kg/injection, schedule: Q04DX002 (ip), vehicle: Klucel (hydroxypropylcellulose) (HPC)): 95 % of control and 107 % of control

SMILES: O=C1CSCCN1
- T/C [4]: 101 % of control
- T/C [5]: 101 % of control
- T/C [6]: 98 % of control

SMILES: Cc1ccc(C(=O)O)cc1-n1c(-c2ccc(Cl)cc2)nnc1-c1ccc(Br)cc1
- T/C [10]: 92 % of control
- T/C (dose: 100.0 mg/kg/injection, schedule: Q01DX001 (ip), vehicle: Klucel (hydroxypropylcellulose) (HPC)): 97 % of control
- T/C [7]: 93 % of control
- T/C (dose: 200.0 mg/kg/injection, schedule: Q01DX001 (ip), vehicle: Klucel (hydroxypropylcellulose) (HPC)): 96 % of control
- T/C [8]: 93 % of control

SMILES: N#CCc1ccc(N=Cc2ccc([N+](=O)[O-])s2)cc1
- T/C (dose: 25.0 mg/kg/injection, schedule: Q04DX003 (ip), vehicle: saline with Tween-80): 102 % of control
- T/C (dose: 50.0 mg/kg/injection, schedule: Q04DX003 (ip), vehicle: saline with Tween-80): 90 % of control

SMILES: CC(=O)OCC1OC(n2cnc3c(Cl)nc(N)nc32)C(OC(C)=O)C1OC(C)=O (stereo not drawn)
- T/C (dose: 100.0 mg/kg/injection, schedule: Q01DX005 (ip), vehicle: saline): 103 % of control
- T/C (dose: 200.0 mg/kg/injection, schedule: Q01DX005 (ip), vehicle: saline): 101 % of control

SMILES: O=C1c2cccc3c([N+](=O)[O-])ccc(c23)C(=O)N1CC1CCCO1 (stereo not drawn)
- T/C [7]: 108 % of control
- T/C [8]: 110 % of control

SMILES: CN(C)c1ccc(/C(=N\O)c2cc[n+](C)cc2)cc1
- T/C (dose: 1.56 mg/kg/injection, schedule: Q01DX009 (ip), vehicle: saline): 98 % of control
- T/C (dose: 3.13 mg/kg/injection, schedule: Q01DX009 (ip), vehicle: saline): 111 % of control
- T/C (dose: 6.25 mg/kg/injection, schedule: Q01DX009 (ip), vehicle: saline): 104 % of control

SMILES: CN(C)C(=O)CCC(=O)O
- T/C (dose: 100.0 mg/kg/injection, schedule: Q04DX002 (ip), vehicle: saline): 103 % of control
- T/C (dose: 200.0 mg/kg/injection, schedule: Q04DX002 (ip), vehicle: saline): 97 % of control
- T/C (dose: 400.0 mg/kg/injection, schedule: Q04DX002 (ip), vehicle: saline): 97 % of control

SMILES: COc1cc(N)c2c(c1N)C(=O)c1ccccc1C2=O
- T/C [7]: 96 % of control
- T/C (dose: 100.0 mg/kg/injection, schedule: Q04DX003 (ip), vehicle: Klucel (hydroxypropylcellulose) (HPC)): 98 % of control
- T/C [8]: 104 % of control
- T/C (dose: 200.0 mg/kg/injection, schedule: Q04DX003 (ip), vehicle: Klucel (hydroxypropylcellulose) (HPC)): 90 % of control
- T/C [9]: 100 % of control
- T/C (dose: 400.0 mg/kg/injection, schedule: Q04DX003 (ip), vehicle: Klucel (hydroxypropylcellulose) (HPC)): 100 % of control

SMILES: O=C1/C(=C\c2ccccc2)C2CCC(C2)/C1=C\c1ccccc1
- T/C [10]: 99 % of control
- T/C [7]: 102 % of control
- T/C [8]: 99 % of control

SMILES: CC1=C(C)C23OCC(CO2)CC3=C(C)C1=O
- T/C (dose: 100.0 mg/kg/injection, schedule: Q01DX001 (ip), vehicle: saline with Tween-80): 93 % of control
- T/C (dose: 200.0 mg/kg/injection, schedule: Q01DX001 (ip), vehicle: saline with Tween-80): 122 % of control
- T/C (dose: 400.0 mg/kg/injection, schedule: Q01DX001 (ip), vehicle: saline with Tween-80): 104 % of control

SMILES: NC(CCl)CCl
- T/C (dose: 12.5 mg/kg/injection, schedule: Q01DX Z (ip), vehicle: other): 92 % of control
- T/C (dose: 25.0 mg/kg/injection, schedule: Q01DX Z (ip), vehicle: other): 100 % of control
- T/C (dose: 100.0 mg/kg/injection, schedule: Q01DX Z (ip), vehicle: other): 94 % of control

SMILES: CC1=CC(C)(C)NC(=S)N1c1ccc(N=Nc2ccccc2)cc1
- T/C (dose: 334.0 mg/kg/injection, schedule: Q01DX Z (ip), vehicle: methylcellulose (MC)): 91 % of control
- T/C (dose: 500.0 mg/kg/injection, schedule: Q01DX Z (ip), vehicle: methylcellulose (MC)): 92 % of control

SMILES: CCOC(=O)c1ccc(N(CCC(=O)CBr)C(C)=O)cc1
- T/C (dose: 5.0 mg/kg/injection, schedule: Q01DX001 (ip), vehicle: carboxymethylcellulose (CMC)): 97 % of control
- T/C (dose: 10.0 mg/kg/injection, schedule: Q01DX001 (ip), vehicle: carboxymethylcellulose (CMC)): 100 % of control
- T/C (dose: 20.0 mg/kg/injection, schedule: Q01DX001 (ip), vehicle: carboxymethylcellulose (CMC)): 100 % of control
- T/C (dose: 40.0 mg/kg/injection, schedule: Q01DX001 (ip), vehicle: carboxymethylcellulose (CMC)): 97 % of control

SMILES: Nc1nc(N)c2c(Cl)c(CNc3ccc(C(=O)NC(CCCC(=O)O)C(=O)O)cc3)ccc2n1 (stereo not drawn)
- T/C (dose: 1.0 mg/kg/injection, schedule: Q01DX009 (ip), vehicle: saline): 170 % of control
- T/C (dose: 2.0 mg/kg/injection, schedule: Q01DX009 (ip), vehicle: saline): 150 % of control and 152 % of control
- T/C (dose: 4.0 mg/kg/injection, schedule: Q01DX009 (ip), vehicle: saline): 178 % of control and 206 % of control
